Columns and labels:
Test in all cases: protein kinase blot: kinases renatured on the blot, labeling with [γ-32P]ATP
Assay type in all cases: biochemical
[1] = test system: other putative kinase bands of demembranated sperm; settings: demembranated ram sperm
Method: (§1) Ejaculated sperm were -collected and washed and demembranated as described in San Agustin et al., Cell Motl. Cytoskel., 24:264-73, 1993. Samples of demembranated sperm were dissolved in SDS-PAGE sample buffer (10% glycerol, 3% SDS, 0.03% bromphenol blue, 50 mM DTT, 62.5 mM Tris-HCl, pH 6.8), and then electrophoresed in a 1.5-mm thick gradient gel (5-15%, 12×14 cm). Protein kinases were renatured on the blot and incubated in the presence of [γ−^32P]ATP using a protocol adapted from Ferrell and Martin, Methods Enzymol., 200:430-35, 1991 and described in San Austin et al., Methods Cell Biol., 47:135-40, 1995. Under these condition, bound kinases phosphorylated themselves or the blocking reagent. In some experiments, 1% poly(Glu,Tyr) 4:1, a tyrosine kinase substrate, was used as blocking solution in place of 5% BSA. […] Two prominent bands at ˜Mr 40,000 and 39,000 migrated slightly faster than porcine C (41 kDa). To determine if either of these was Cs, the incubation with [γ−^32P]ATP was carried out in the presence of PKI(5-24), a potent inhibitor of C, including ram Cs, activity. […] Labeling of the other bands was not affected by PKI(5-24).

porcine C = porcine C (Sus scrofa, UniProt P36887)
Method: as §1

[2] = molecular target: T1, ~Mr 40,000 band from sperm (Cs) (Ovis aries, UniProt Q9MZD9); settings: demembranated ram sperm
T1 construct: Samples of demembranated sperm were dissolved in SDS-PAGE sample buffer; from tissue; host or cells: ejaculated, demembranated ram sperm
Method: as §1

labeling of the other bands with [γ-32P]ATP in the presence of inhibitor [1]: not affected
labeling of porcine C with [γ-32P]ATP in the presence of inhibitor (porcine C): completely and specifically blocked
labeling of the ~Mr 40,000 band from sperm with [γ-32P]ATP in the presence of inhibitor [2]: completely and specifically blocked
Substance: PKI(5-24)
